Where “and” joins values, the source holds several entries; their conditions need not be identical. Identical values can stand only once. Toxic doses and inconclusive results are not listed. Rule as the data show it: active = T/C of 150% or more; inactive = T/C below 125%. Square brackets hold non-standard residues; d marks the D form. Peptide text beside a SMILES is read from it. * marks the point of attachment. ξ: configuration not given here. Cbz = O=C(OCc1ccccc1)*; ξD = NC(CC(=O)O)C(=O)O
Test system: L1210 leukemia ip in BDF1 mice, survival T/C
Test: NCI In Vivo Anticancer Drug Screen. Data for tumor model L1210 Leukemia (intraperitoneal) in B6D2F1 (BDF1) mice
Settings: endpoint: mean survival time, higher = longer survival
In short: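 Antitumor effect is assessed in tumor-bearing animals. Survival in the compound arm is compared with a vehicle-dosed control arm and expressed as their quotient.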

[1] = dose: 100.0 mg/kg/injection, schedule: Q01DX001 (ip), vehicle: Klucel (hydroxypropylcellulose) (HPC)
[2] = dose: 100.0 mg/kg/injection, schedule: Q01DX001 (ip), vehicle: carboxymethylcellulose (CMC)
[3] = dose: 200.0 mg/kg/injection, schedule: Q01DX001 (ip), vehicle: carboxymethylcellulose (CMC)
[4] = dose: 400.0 mg/kg/injection, schedule: Q01DX001 (ip), vehicle: carboxymethylcellulose (CMC)
[5] = dose: 100.0 mg/kg/injection, schedule: Q01DX009 (ip), vehicle: Klucel (hydroxypropylcellulose) (HPC)
[6] = dose: 100.0 mg/kg/injection, schedule: Q04DX003 (ip), vehicle: Klucel (hydroxypropylcellulose) (HPC)
[7] = dose: 200.0 mg/kg/injection, schedule: Q01DX009 (ip), vehicle: Klucel (hydroxypropylcellulose) (HPC)
[8] = dose: 200.0 mg/kg/injection, schedule: Q04DX003 (ip), vehicle: Klucel (hydroxypropylcellulose) (HPC)
[9] = dose: 400.0 mg/kg/injection, schedule: Q04DX003 (ip), vehicle: Klucel (hydroxypropylcellulose) (HPC)
[10] = dose: 100.0 mg/kg/injection, schedule: Q04DX002 (ip), vehicle: Klucel (hydroxypropylcellulose) (HPC)
[11] = dose: 200.0 mg/kg/injection, schedule: Q04DX002 (ip), vehicle: Klucel (hydroxypropylcellulose) (HPC)
[12] = dose: 100.0 mg/kg/injection, schedule: Q04DX003 (ip), vehicle: saline with Tween-80
[13] = dose: 400.0 mg/kg/injection, schedule: Q04DX002 (ip), vehicle: Klucel (hydroxypropylcellulose) (HPC)
[14] = dose: 200.0 mg/kg/injection, schedule: Q01DX001 (ip), vehicle: Klucel (hydroxypropylcellulose) (HPC)
[15] = dose: 400.0 mg/kg/injection, schedule: Q01DX001 (ip), vehicle: Klucel (hydroxypropylcellulose) (HPC)
[16] = dose: 200.0 mg/kg/injection, schedule: Q01DX001 (ip), vehicle: saline
[17] = dose: 400.0 mg/kg/injection, schedule: Q01DX001 (ip), vehicle: saline
[18] = dose: 100.0 mg/kg/injection, schedule: Q01DX001 (ip), vehicle: saline with Tween-80
[19] = dose: 200.0 mg/kg/injection, schedule: Q01DX001 (ip), vehicle: saline with Tween-80
[20] = dose: 400.0 mg/kg/injection, schedule: Q01DX001 (ip), vehicle: saline with Tween-80

Measured: T/C

N#CC(C#N)=Cc1c(Cl)cccc1Cl
inactive: dose: 6.25 mg/kg/injection, schedule: Q01DX001 (ip), vehicle: Klucel (hydroxypropylcellulose) (HPC) 96 % of control | dose: 6.25 mg/kg/injection, schedule: Q04DX003 (ip), vehicle: Klucel (hydroxypropylcellulose) (HPC) 94 % of control | dose: 12.5 mg/kg/injection, schedule: Q01DX001 (ip), vehicle: Klucel (hydroxypropylcellulose) (HPC) 103 % of control | dose: 12.5 mg/kg/injection, schedule: Q04DX003 (ip), vehicle: Klucel (hydroxypropylcellulose) (HPC) 114 % of control | dose: 25.0 mg/kg/injection, schedule: Q01DX001 (ip), vehicle: Klucel (hydroxypropylcellulose) (HPC) 96 % of control and 109 % of control | dose: 25.0 mg/kg/injection, schedule: Q04DX003 (ip), vehicle: Klucel (hydroxypropylcellulose) (HPC) 97 % of control | [1] 105 % of control

Nc1nc(N)c(N=Nc2ccc(S(N)(=O)=O)cc2)cc1N=Nc1ccccc1
inactive: [2] 94 % of control | [3] 94 % of control | [4] 100 % of control

CCN(c1ccccc1C)S(=O)(=O)c1ccccc1
inactive: [5] 109 % of control | [6] 103 % of control | [7] 101 % of control | [8] 93 % of control | dose: 400.0 mg/kg/injection, schedule: Q01DX009 (ip), vehicle: Klucel (hydroxypropylcellulose) (HPC) 87 % of control | [9] 95 % of control

O=C(COc1ccc(Cl)cc1Cl)Nc1ccc(-c2ccc(NC(=O)COc3ccc(Cl)cc3Cl)cc2)cc1
inactive: dose: 50.0 mg/kg/injection, schedule: Q04DX002 (ip), vehicle: Klucel (hydroxypropylcellulose) (HPC) 89 % of control | [10] 89 % of control | [11] 100 % of control

COC(=O)CCC(C(=O)CN1C(=O)c2ccccc2C1=O)N1C(=O)c2ccccc2C1=O (stereo not given)
inactive: [12] 96 % of control | dose: 200.0 mg/kg/injection, schedule: Q04DX003 (ip), vehicle: saline with Tween-80 92 % of control | dose: 400.0 mg/kg/injection, schedule: Q04DX003 (ip), vehicle: saline with Tween-80 92 % of control

O=C(NCCNCc1ccccc1)c1ccccc1
inactive: dose: 25.0 mg/kg/injection, schedule: Q01DX009 (ip), vehicle: water 97 % of control | dose: 25.0 mg/kg/injection, schedule: Q04DX003 (ip), vehicle: water 96 % of control | dose: 50.0 mg/kg/injection, schedule: Q01DX009 (ip), vehicle: water 98 % of control | dose: 50.0 mg/kg/injection, schedule: Q04DX003 (ip), vehicle: water 107 % of control | [12] 108 % of control | dose: 100.0 mg/kg/injection, schedule: Q04DX003 (ip), vehicle: water 92 % of control

COc1ccc(CN2CCCN(Cc3ccc(OC)cc3OC)C2c2cc(OC)ccc2OC)c(OC)c1
inactive: dose: 50.0 mg/kg/injection, schedule: Q01DX001 (ip), vehicle: carboxymethylcellulose (CMC) 114 % of control | [2] 102 % of control | [3] 102 % of control | [4] 108 % of control

CC(C)(C)NS(=O)(=O)CCl
inactive: [10] 111 % of control | [11] 104 % of control | [13] 93 % of control

Cc1cc(CCl)c(Br)cc1CCl
inactive: [10] 100 % of control | [11] 100 % of control | [13] 107 % of control

CSc1nc(N)c(N=Nc2ccc(S(=O)(=O)Nc3cc(C)nc(C)n3)cc2)c(=O)[nH]1
inactive: [2] 103 % of control | [3] 95 % of control | [4] 97 % of control

Nc1ccc2ccc3ccc4ccccc4c3c2c1
inactive: [1] 97 % of control | [6] 104 % of control | [14] 103 % of control | [8] 113 % of control | [15] 100 % of control | [9] 90 % of control

Cc1ccc(N(CCO)CCO)cc1NC(=O)c1ccccc1
inactive: [2] 103 % of control | [3] 101 % of control | [4] 101 % of control

Clc1ccc(/C(=N\OC(c2ccccc2)c2ccccc2)c2ccccc2)cc1
inactive: [16] 86 % of control | [17] 87 % of control

CCCCCC(=O)CC(=O)c1cccs1
inactive: dose: 200.0 mg/kg/injection, schedule: Q01DX Z (ip), vehicle: other 100 % of control | dose: 400.0 mg/kg/injection, schedule: Q01DX Z (ip), vehicle: other 103 % of control

Cc1ccn2c(=O)cc(O)nc2c1
inactive: dose: 50.0 mg/kg/injection, schedule: Q01DX001 (ip), vehicle: saline 101 % of control | dose: 100.0 mg/kg/injection, schedule: Q01DX001 (ip), vehicle: saline 98 % of control | [16] 92 % of control | [17] 98 % of control

CCOC(=O)/C=C/Cc1cc(-c2ccccc2)ccc1O
inactive: dose: 100.0 mg/kg/injection, schedule: Q04DX003 (ip), vehicle: acetone 98 % of control | dose: 200.0 mg/kg/injection, schedule: Q04DX003 (ip), vehicle: acetone 98 % of control | dose: 400.0 mg/kg/injection, schedule: Q04DX003 (ip), vehicle: acetone 103 % of control

Cc1ccc(S(=O)(=O)N/N=C(/c2ccccc2)c2ccsc2C)cc1
inactive: [18] 98 % of control | [19] 88 % of control | [20] 92 % of control

[N-]=[N+]=Nc1cnn(-c2ccccc2)c(=O)c1Cl
inactive: dose: 18.75 mg/kg/injection, schedule: Q01DX009 (ip), vehicle: saline with Tween-80 105 % of control | dose: 37.5 mg/kg/injection, schedule: Q01DX009 (ip), vehicle: saline with Tween-80 92 % of control | dose: 75.0 mg/kg/injection, schedule: Q01DX009 (ip), vehicle: saline with Tween-80 101 % of control

COc1ccc(-c2cnc(=O)[nH]c2N)cc1
inactive: [6] 101 % of control | [8] 104 % of control

CCOC(=O)/C(=C\c1cccc2ccccc12)c1ccncc1
inactive: [18] 89 % of control | dose: 100.0 mg/kg/injection, schedule: Q01DX009 (ip), vehicle: saline with Tween-80 98 % of control | [19] 93 % of control | dose: 200.0 mg/kg/injection, schedule: Q01DX009 (ip), vehicle: saline with Tween-80 100 % of control | [20] 96 % of control

CCCCSc1ccc2c(cc1=O)C(NC(C)=O)CCc1cc(OC)c(OC)c(OC)c1-2 (stereo not given)
inactive: dose: 25.0 mg/kg/injection, schedule: Q04DX002 (ip), vehicle: saline 98 % of control | dose: 50.0 mg/kg/injection, schedule: Q04DX002 (ip), vehicle: saline 98 % of control | dose: 100.0 mg/kg/injection, schedule: Q04DX002 (ip), vehicle: saline 120 % of control

Fc1c(F)c(Oc2c(F)c(F)c(C(F)(F)F)c(F)c2F)c(F)c(Oc2c(F)c(F)c(C(F)(F)F)c(F)c2F)c1F
inactive: [1] 96 % of control | [6] 98 % of control | [14] 100 % of control | [8] 95 % of control | [15] 89 % of control | [9] 97 % of control

O=CC(O)C(Cl)C(Cl)C(O)CCl (stereo not given)
inactive: dose: 100.0 mg/kg/injection, schedule: Q04DX002 (ip), vehicle: saline with Tween-80 98 % of control | dose: 200.0 mg/kg/injection, schedule: Q04DX002 (ip), vehicle: saline with Tween-80 98 % of control | dose: 400.0 mg/kg/injection, schedule: Q04DX002 (ip), vehicle: saline with Tween-80 102 % of control

CN=C(N)c1ccc(N=C(N)c2ccc(N=C(N)c3ccc(NC(=O)c4ccc(C(=O)Nc5ccc(C(N)=Nc6ccc(C(N)=Nc7ccc(C(N)=NC)cc7)cc6)cc5)cc4)cc3)cc2)cc1
inactive: dose: 6.25 mg/kg/injection, schedule: Q01DX Z (ip), vehicle: water 110 % of control | dose: 12.5 mg/kg/injection, schedule: Q01DX Z (ip), vehicle: water 120 % of control | dose: 50.0 mg/kg/injection, schedule: Q01DX Z (ip), vehicle: water 121 % of control

O=C(O)CC(NC(=O)CNC(=O)OCc1ccccc1)C(=O)O (stereo not drawn) (Cbz-Gly-[ξD]-OH)
inactive: dose: 50.0 mg/kg/injection, schedule: Q01DX009 (ip), vehicle: Klucel (hydroxypropylcellulose) (HPC) 93 % of control | dose: 50.0 mg/kg/injection, schedule: Q04DX003 (ip), vehicle: Klucel (hydroxypropylcellulose) (HPC) 94 % of control | [5] 93 % of control | [6] 98 % of control | [7] 95 % of control | [8] 94 % of control
